Measured values from US20030203963A1, “Antimicrobial agent” (priority 2001, published 2003).

Key:
Ps. fluorescens = assay: Lab media at optimum temperature (summary); format: cell-based, Pseudomonas fluorescens
Protocol: (§1) For broth cultures and Bioscreen testing most bacteria were grown in Brain Heart Infusion (BHI, Oxoid, pH 7.4). Lactobacillus sake A10 was grown in de Man, Rogosa, Sharpe medium ([…], Oxoid). Yeasts were grown in Sabouraud Liquid medium (SLM, Oxoid). Most bacteria were cultured at 30° C. Lactic acid bacteria were grown on solid medium in enriched CO2 atmosphere. Clostridium species were grown in Reinforced Clostridial Medium (RCM) at 37° C. anaerobically. Brochothrix thermosphacta fungi and yeasts were grown at 25° C. Fungi were cultured on Malt Extract Agar (MEA, Oxoid).
(§2) An automated Microbiology Reader Bioscreen C was used to measure growth curves of the strains in the presence and absence of APP. The Bioscreen C measures the development of turbidity (i.e. growth) kinetically by vertical photometry in 200 wells of a honeycomb microtitre plate, simultaneously. The system consists of a Bioscreen C analyser, which is an incubator and measurement unit, integrated with a PC, software (BioLink v 5.30), printer and a ‘Honeycomb 2’ cuvette multiwell plate. Growth curve data can be analysed within the BioLink software or exported to programs such as Excel.
Broth culture media were dispensed in 270 μl volumes into the wells as directed. […] (depending on the micro-organism under investigation) with readings taken every 20 minutes after the trays were shaken. […]

L. monocytogenes S23 = assay: In vitro cidal experiment; format: cell-based, Listeria monocytogenes; settings: ambient temperature
Protocol: 100 μl of SDW (sterile deionised water) or APP sample E002012 was added to 890 μl 10 mM HEPES buffer (pH 7). […] After this time the bacteria were enumerated by viable count. The concentration of the APP sample was 24.7 μg/ml.

S. cerevisiae ATCC9763 = assay: Bioscreen growth inhibition test; format: cell-based, Saccharomyces cerevisiae; settings: APP 213, BS010420, 72 h/25° C.
Protocol: as §1, §2
(§3) Broth culture media were dispensed in 270 μl volumes into the wells as directed. Serial dilutions of a filter-sterilised APP stock solution were then dispensed into the same wells, as appropriate. The wells were inoculated with 30 μl of an appropriately diluted overnight broth culture or spore suspension, to give a final inoculum level of […]. The tests were incubated in the Bioscreen C for either 24 h at 30° C., or 72 h at 25° C. (depending on the micro-organism under investigation) with readings taken every 20 minutes after the trays were shaken. After the incubation period was complete the data were exported to Excel for analysis.

S cerevisiae H78 = assay: Bioscreen growth inhibition test; format: cell-based, Saccharomyces cerevisiae; settings: APP 213, BS010420, 72 h/25° C.
Protocol: as §1, §2, §3

Lactobacillus sake A10 = assay: Well diffusion test; format: cell-based; settings: 20 μl of 49.3 mg/ml (4.9%) APP sample E002012
Protocol: (§4) Seeded 10 ml agar plates of various test organisms were prepared, with inoculation of either 20 μl spore suspension or overnight broth. This gave an inoculum level of ca. 10^5-10^6 cfu/ml. After the plates had set, small wells were cut, and 20 μl of APP sample was loaded. Plates were incubated overnight at appropriate temperature and examined after 1-2 days (after which microbial growth is clearly visible) for zones of inhibition.

[1] = tested on: Saccharomyces carlsbergensis CRA6413; assay: Well diffusion test; format: cell-based; settings: 20 μl of 49.3 mg/ml (4.9%) APP sample E002012
Protocol: as §4

[2] = tested on: Saccharomyces cerevisiae ATCC 9763; assay: Well diffusion test; format: cell-based; settings: 20 μl of 49.3 mg/ml (4.9%) APP sample E002012
Protocol: as §4

[3] = tested on: Clostridium sporogenes Campden; assay: Well diffusion test; format: cell-based; settings: 20 μl of 49.3 mg/ml (4.9%) APP sample E002012
Protocol: as §4

Bacillus cereus 204 = assay: Well diffusion test; format: cell-based; settings: 20 μl of 49.3 mg/ml (4.9%) APP sample E002012
Protocol: as §4

[4] = tested on: Pseudomonas fluorescens 327; assay: Well diffusion test; format: cell-based; settings: 20 μl of 49.3 mg/ml (4.9%) APP sample E002012
Protocol: as §4

Micrococcus luteus = assay: Well diffusion test; format: cell-based; settings: 20 μl of 49.3 mg/ml (4.9%) APP sample E002012
Protocol: as §4

[5] = tested on: Listeria monocytogenes S23; assay: Well diffusion test; format: cell-based; settings: 20 μl of 49.3 mg/ml (4.9%) APP sample E002012
Protocol: as §4

[6] = tested on: Brochothrix thermosphacta CRA7883; assay: Well diffusion test; format: cell-based; settings: 20 μl of 49.3 mg/ml (4.9%) APP sample E002012
Protocol: as §4

[7] = tested on: Cl. sporogenes (strains 1.221; Campden; ABC20; 4.440); assay: Sensitivity testing for Clostridium species in cooked meat medium; format: cell-based, Clostridium sporogenes; settings: highest level tested 2000 ppm APP20010215, anaerobically at 37° C.
Protocol: Stock solutions of APP215 (0.5, 1 and 2%) were prepared and filter-sterilised. Cooked meat medium (CMM, Oxoid) was prepared by distributing 1 g of the medium to individual test tubes, which were then filled with 8.9 ml water. After autoclaving 100 μl of the APP stock solutions were added, to give final concentrations of 0, 500, […] and 2000 ppm APP. The tests were inoculated with […] of Clostridium spores, to give an inoculum level of ca. 10 cfu/ml. The tubes were overlaid with 3 ml of 2% agar to maintain anaerobicity. The tests were incubated at 37° C., and examined daily for signs of growth (turbidity, gas production).

[8] = tested on: Salmonella Typhimurium S29; assay: Chicken soup trial at 20° C.; format: cell-based; settings: chicken soup at 20° C., TCSM010430, APP20010213
Text: A local supermarket brand of cream of chicken soup was used as a model food system. 600 g packs were purchased from the local supermarket. This was a ‘fresh home-made type’ of soup that was stored in the chill cabinet, with a short shelf life. It was chosen because it is a rich, nutritious food system containing a range of food components including meat, dairy and vegetable.
Ingredients were labelled as: chicken stock (water, duck fat, chicken, salt, flavourings, yeast extracts, pork gelatine, glucose syrup, vegetable concentrate, milk protein, sugar, malto-dextrin, vegetable oil, citric acid, lactose, chicken fat), ilk, chicken (9%), cream (8%), onion, potato, vegetable oil, modified maize starch, wheat flour, lemon juice, salt, white pepper. pH 5.912. Protein: 3.3%; carbohydrate: 4.7%; fat: 7.2%; fibre: 0.2%; sodium: 0.1%
For the test the soup was mixed 2:1 in water (to facilitate sampling and mixing) and sterilised by autoclaving at 121° C. for 15 minutes. For each experiment the pH of the soup was recorded; this was between pH 5.79-5.88.
For TCS010430/20 (incubated at 20° C.) samples were prepared in 18.8 g quantities, to which 1 g of a suitable filter-sterilised APP stock solution was added and an appropriately diluted 0.2 ml inoculum. Great care was again taken to ensure homogeneous distribution of the APP and micro-organisms. This test was sampled by viable count test on a daily basis.

SMILES: O=C1CC(CO)OC=C1O (stereo not drawn) [APP, Ascopyrone P]
- Total inhibition (effect on growth of target organism by 2000 ppm APP) (Ps. fluorescens): Ps. fluorescens
- Viable count after 2 h incubation (L. monocytogenes S23; 24.7 μg/ml APP E002012, 10 mM HEPES buffer (pH 7)): 1.3 × 10^7
- Listeria counts after 2 h incubation (L. monocytogenes S23; 24.7 μg/ml APP, buffer): remained steady
- APP level causing significant inhibition (S. cerevisiae ATCC9763): Enhanced growth
- APP level causing total inhibition (S. cerevisiae ATCC9763): >4000
- APP level causing significant inhibition (S cerevisiae H78): 4000
- APP level causing total inhibition (S cerevisiae H78): >4000
- Sensitivity in well diffusion (zones of inhibition) (Lactobacillus sake A10): sensitive
- Sensitivity in well diffusion (zones of inhibition) [1]: sensitive
- Sensitivity in well diffusion (zones of inhibition) [2]: sensitive
- Sensitivity in well diffusion (zones of inhibition) [3]: sensitive
- Sensitivity in well diffusion (zones of inhibition) (Bacillus cereus 204): sensitive
- Sensitivity in well diffusion (zones of inhibition) [4]: sensitive
- Sensitivity in well diffusion (zones of inhibition) (Micrococcus luteus): sensitive
- Sensitivity in well diffusion (zones of inhibition) [5]: sensitive
- Sensitivity in well diffusion (zones of inhibition) [6]: sensitive
- Growth inhibition [7]: No growth inhibition
- Effect on growth ([8]; 1000 ppm): No effect with 1000 ppm
- Final count ([8]; 2000 ppm (cf 10^9 without)): 10^6
- Counts drop after ([8]; 2000 ppm): 8 days
- Counts undetectable by ([8]; 2000 ppm): counts drop, undetectable by 18 d.
